Measured values taken from PubChem BioAssay (NCI).
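The compound was tested at five concentrations on cells cultured in 96-well plates, with a 48-hour exposure period. GI50 marks 50% less growth. TGI: concentration producing complete growth inhibition.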

Key:
Assay in all cases: growth of human tumour cells (NCI), 48 h
MALME-3M melanoma = test system: MALME-3M melanoma
SK-MEL-28 melanoma = test system: SK-MEL-28 melanoma
UO-31 renal = test system: UO-31 renal
SR leukemia = test system: SR leukemia
NCI-H460 lung = test system: NCI-H460 lung
HOP-92 NSCLC = test system: HOP-92 NSCLC
NCI/ADR-RES ovarian = test system: NCI/ADR-RES ovarian
MDA-MB-435 = test system: MDA-MB-435
NCI-H226 lung = test system: NCI-H226 lung
BT-549 breast = test system: BT-549 breast

Structure (SMILES)	GI50 (MALME-3M melanoma)	TGI (MALME-3M melanoma)	GI50 (SK-MEL-28 melanoma)	TGI (SK-MEL-28 melanoma)	GI50 (UO-31 renal)	TGI (UO-31 renal)	GI50 (SR leukemia)	TGI (SR leukemia)	GI50 (NCI-H460 lung)	TGI (NCI-H460 lung)	GI50 (HOP-92 NSCLC)	TGI (HOP-92 NSCLC)	GI50 (NCI/ADR-RES ovarian)	TGI (NCI/ADR-RES ovarian)	GI50 (MDA-MB-435)	TGI (MDA-MB-435)	TGI (NCI-H226 lung)	GI50 (BT-549 breast)	TGI (BT-549 breast)	GI50 (NCI-H226 lung)
C=C1[C@@H](O)O[C@H]2[C@H]1C[C@H](OC(C)=O)[C@]13C(=O)O[C@H]4C[C@](C)(O)[C@H]([C@H]41)C31C=C(C)[C@]2(O)O1	16.3 µM	46.1 µM	61 µM	> 100 µM	27.2 µM	74.1 µM	40.9 µM	> 100 µM	32.5 µM	96.9 µM	> 100 µM	> 100 µM	28 µM	80.8 µM	13.3 µM	> 100 µM				
CC1=C(CC2C(=O)N(c3ccccc3)S(=O)(=O)NC2C)C(=O)N(c2ccccc2)S(=O)(=O)N1C (stereo unspecified)		> 100 µM		> 100 µM		> 100 µM		> 100 µM		> 100 µM		> 100 µM					> 100 µM			
Cc1ccccc1-n1c(N)c(-c2nc3ccccc3[nH]2)sc1=S		45.1 µM		39.3 µM		45.6 µM											74.4 µM			
O=C1C=C(O)C(=Cc2c(O)cc(O)cc2O)C(O)=C1		> 100 µM				> 100 µM		> 100 µM		> 100 µM		> 100 µM					> 100 µM			
O=C(NCCNCCO)c1cccc2ccc(-c3ccccc3)nc12				22.1 µM		12 µM				11.6 µM		11.7 µM					17.4 µM			
COC(=O)C(C(=O)C(=O)Nc1ccc([N+](=O)[O-])cc1)c1nc2ccc([N+](=O)[O-])cc2[nH]c1=O (stereo unspecified)		> 100 µM		> 100 µM		> 100 µM		> 100 µM		> 100 µM		> 100 µM					> 100 µM			
C[C@@H]1O[C@@H](O[C@@H]2[C@@H](O)[C@H](OCCc3ccc(O)c(O)c3)O[C@H](CO)[C@H]2OC(=O)/C=C/c2ccc(O)c(O)c2)[C@H](O)[C@H](OC2OC[C@](O)(CO)[C@H]2O)[C@H]1O (stereo partly specified)			> 100 µM	> 100 µM	> 100 µM	> 100 µM	> 100 µM	> 100 µM	> 100 µM	> 100 µM					17.5 µM	34.6 µM	> 100 µM	12 µM	27.2 µM	> 100 µM
N[C@H](COCc1ccccc1)c1ccccc1		> 93.6 µM		> 100 µM		87.4 µM		56 µM		61.9 µM		62 µM					77.5 µM			
N#CCCNc1nonc1-c1nc2ccccc2n1CC(=O)c1ccc(NC(=O)[C@@H](N)CCCCN)cc1	> 100 µM	> 100 µM			0.282 µM	> 100 µM	0.025 µM	> 100 µM	0.0344 µM	> 100 µM	0.487 µM	> 100 µM				0.0742 µM	> 100 µM	0.0311 µM		
COc1ccc(OC(=O)CC2Cc3cc(OC)c(OC)c(OC)c3-c3ccc(SC)c(=O)cc32)cc1 (stereo unspecified)		> 100 µM		98.9 µM		> 100 µM		> 100 µM		4.99 µM		9.05 µM					0.782 µM			
N#CCN1C(=O)c2cc([N+](=O)[O-])cc3cc([N+](=O)[O-])cc(c23)C1=O		28 µM		> 52.8 µM		32 µM		12.6 µM		45.9 µM		32.5 µM					49.9 µM			
Cc1ccc(NC(=O)C(=O)C(C(=O)/C=C/c2ccccc2)C2OC(=O)c3ccccc32)c(C)c1 (stereo unspecified)		> 100 µM		> 100 µM		> 100 µM		> 100 µM		> 100 µM		> 100 µM					> 100 µM			
Cc1cc(=O)c2c(O)cc3c(c2o1)CC=C(COC1OC(COC2OC(CO)C(O)C(O)C2O)C(O)C(O)C1O)CO3 (stereo unspecified)		> 100 µM		> 100 µM		> 100 µM		> 100 µM		> 100 µM		> 100 µM					> 100 µM			
CC1=NN(c2ccccc2)C(=O)/C1=C\c1ccc([N+](=O)[O-])cc1		69.3 µM		> 100 µM		> 100 µM				> 100 µM										
c1ccc2c(c1)CCc1c-2n[nH]c1-c1[nH]nc2c1CCc1ccccc1-2		> 100 µM		> 100 µM		> 100 µM		> 100 µM		> 100 µM		> 100 µM					> 100 µM			
CCOc1ccc(NC(=O)CCc2nnc(SC)o2)cc1		> 100 µM		> 100 µM		> 100 µM		> 100 µM		> 100 µM		> 100 µM					> 100 µM			
COc1cc(C2(C)SCCCS2)cc(OC)c1OC		> 100 µM		> 100 µM		> 100 µM		> 100 µM		> 100 µM		> 100 µM					> 100 µM			
NC1=NC(=O)C(CC(=O)Nc2ccc(Cl)cc2Cl)S1 (stereo unspecified)		> 100 µM		> 100 µM		> 100 µM				> 100 µM										

Structure (SMILES)	GI50 (MALME-3M melanoma)	TGI (MALME-3M melanoma)	GI50 (SK-MEL-28 melanoma)	TGI (SK-MEL-28 melanoma)	GI50 (UO-31 renal)	TGI (UO-31 renal)	GI50 (SR leukemia)	TGI (SR leukemia)	GI50 (NCI-H460 lung)	TGI (NCI-H460 lung)	GI50 (HOP-92 NSCLC)	TGI (HOP-92 NSCLC)	GI50 (NCI/ADR-RES ovarian)	TGI (NCI/ADR-RES ovarian)	GI50 (MDA-MB-435)	TGI (MDA-MB-435)	TGI (NCI-H226 lung)	GI50 (BT-549 breast)	TGI (BT-549 breast)	GI50 (NCI-H226 lung)
O=C(Cc1nc2ccccc2o1)C(=O)Nc1cccc(C(F)(F)F)c1		> 100 µM		> 100 µM		> 100 µM				> 100 µM		> 100 µM					> 100 µM			
Cc1cccc(NC(=O)/C(=N\N)C(c2cnc3ccc([N+](=O)[O-])cc3n2)[N+](=O)[O-])c1C (stereo unspecified)		> 100 µM		> 100 µM		> 100 µM		> 100 µM		> 100 µM		> 100 µM					> 100 µM			
c1cc(-c2cn3c(n2)SCC3)ccn1		> 100 µM		> 100 µM		> 100 µM		> 100 µM		> 95.2 µM		> 100 µM					> 100 µM			
N#CC1(C#N)C(c2ccccc2)C=CC12OCCCO2 (stereo unspecified)		> 100 µM		> 100 µM		> 100 µM		> 100 µM		> 100 µM		> 100 µM					> 100 µM			
CC(=O)/C(=C\c1ccccc1O)C(=O)Nc1ccccc1C		47.7 µM		53.8 µM		31 µM		48.1 µM		> 100 µM		44.9 µM					62.4 µM			
Cc1ccc(C2C3Cc4ccccc4C3=NN2c2ccc(S(=O)(=O)/N=c3\scc(-c4ccccc4)n3-c3ccccc3)cc2)cc1 (stereo unspecified)					18.4 µM	55.4 µM	11.1 µM	24.5 µM	18.1 µM	45.1 µM	18.8 µM	41.7 µM			17.6 µM	37.7 µM	67.2 µM	18.8 µM	43.3 µM	21.4 µM
CCOC(=O)/C(I)=C/c1cc(OC)c(OC)c(OC)c1		26.2 µM		7.88 µM		19.1 µM		8.8 µM		> 100 µM		27.1 µM					25.9 µM			
Cc1ccncc1C(N)=O	> 100 µM	> 100 µM	> 100 µM	> 100 µM	> 100 µM	> 100 µM	> 100 µM	> 100 µM	> 100 µM	> 100 µM	> 100 µM	> 100 µM	> 100 µM	> 100 µM	> 100 µM	> 100 µM	> 100 µM			> 100 µM
COc1ccc(-c2[nH]c3ccccc3c2CCNS(=O)(=O)c2ccc(C)cc2)cc1		> 10 µM		> 10 µM		> 10 µM		> 10 µM		> 10 µM		> 10 µM					> 10 µM			
O=C(Nc1ccccc1OC(=O)c1ccccc1)c1ccccc1	14.5 µM	> 100 µM	> 100 µM	> 100 µM	13.8 µM	> 100 µM	3.12 µM	> 100 µM	3.26 µM	15.2 µM	23.1 µM	> 100 µM	19.2 µM	> 100 µM	24.5 µM	> 100 µM	> 100 µM			> 100 µM
CCOC(=O)C1Nc2ccccc2[C@H]2OCC[C@@H]12 (stereo partly specified)		> 100 µM		> 100 µM						> 100 µM							> 100 µM			
COc1cc2cc(Oc3ccc(NC(=O)c4ccc(Cl)c(Cl)c4)cc3)c(C)nc2cc1OC	> 100 µM	> 100 µM	> 100 µM	> 100 µM	8.44 µM	> 100 µM	19.6 µM	> 100 µM	25.4 µM	> 100 µM	16.1 µM	> 100 µM			> 100 µM	> 100 µM	> 100 µM	3.91 µM	> 100 µM	> 100 µM
O=Cc1ccc2c(c1I)OCO2		> 100 µM				> 100 µM		> 100 µM		> 100 µM							> 100 µM			
CCCC(S(=O)(=O)c1ccccc1)S(=O)(=O)c1ccccc1		> 100 µM		> 100 µM		> 100 µM				> 100 µM							> 100 µM			
N#CNc1nc(N)c(-c2ccc(Cl)cc2)c(C(=O)Nc2nccs2)n1		> 100 µM		> 100 µM		> 100 µM				> 100 µM		> 100 µM					> 100 µM			
Cc1cc2c(c(C(N)=O)c1C)-c1cc(Cl)cc(Cl)c1C2=O		> 100 µM		> 100 µM		> 100 µM				> 100 µM		> 100 µM								
CC(C)(C)c1cc2nc(c1)C(C(F)(F)F)(C(F)(F)F)OB(Br)OC2(C(F)(F)F)C(F)(F)F		4.42 µM		18.6 µM		2.72 µM														
CC1=C(C(=O)Nc2ccc(Cl)c(Cl)c2)C(c2ccc([N+](=O)[O-])cc2)C(C(=O)Nc2ccc(Cl)c(Cl)c2)=C(C)N1		7.06 µM		9.93 µM		10.6 µM				6.15 µM		6.06 µM					11.6 µM			
